Source: patent US20160206645A1, “COMBINATION THERAPIES FOR TREATMENT OF HCV” (priority 2015, published 2016)

How the values were obtained:
[1] = Plasma PK parameters at Week 2 and Week 8, interim analysis (Example 4); type: in vivo, human; parameters: AUC: concentration or dose not given beside the values; conditions: for AUC / Cmax: human
Experimental: Methods: HCV treatment-naïve or (peg)IFN±ribavirin treatment-experienced GT1/4-infected cirrhotic pts≧18 yrs with Child-Pugh (CP) score<7 (Class A) with evidence of portal hypertension or 7-9 (Class B) were enrolled. Pts received 12 wks of SMV (150 mg once daily [QD]), DCV (60 mg QD) and SOF (400 mg QD). Primary efficacy endpoint: sustained virologic response 12 wks after end of treatment (EOT, SVR12). Key secondary endpoints: SVR4, on-treatment failure, viral relapse, PK and safety.

[2] = Pharmacokinetic analysis at week 2 and week 8 (Example 5); type: in vivo, human
[3] = plasma, oral, Week 2, Child-Pugh A (n = 19)
[4] = plasma, oral, Week 2, Child-Pugh B (n = 9)
[5] = plasma, oral, Week 8, Child-Pugh A (n = 18)
[6] = plasma, oral, Week 8, Child-Pugh B (n = 9)
[7] = in vivo, Week 2, Child-Pugh A (n = 19), plasma
[8] = in vivo, Week 2, Child-Pugh B (n = 9), plasma
[9] = in vivo, Week 8, Child-Pugh A (n = 18), plasma
[10] = in vivo, Week 8, Child-Pugh B (n = 9), plasma

Row | SMILES | Cmax [1, 3] [ng/mL] | AUC [1, 4] [ng·h/mL] | Cmax [1, 4] [ng/mL] | AUC [1, 5] [ng·h/mL] | Cmax [1, 5] [ng/mL] | AUC [1, 6] [ng·h/mL] | Cmax [1, 6] [ng/mL] | mean exposure, higher in Child-Pugh B subjects than in Child-Pugh A subjects ([2]; treatment with SMV+SOF+DCV) [fold] | Mean exposures within groups and at Wk2 vs Wk8 ([1]; CP A and CP B) | other results
1 | COc1ccc2c(O[C@@H]3C[C@H]4C(=O)N[C@]5(C(=O)NS(=O)(=O)C6CC6)C[C@H]5/C=C\CCCCN(C)C(=O)[C@@H]4C3)cc(-c3nc(C(C)C)cs3)nc2c1C [Simeprevir, simeprevir] | 6980 | 144000 | 7950 | 98600 | 6030 | 176000 | 8840 | 2.2 | – | Mean exposures for both groups, Wk2 vs Wk8 ([1]; CP A and CP B): comparable; Mean SMV exposure (AUC), higher in CP B vs CP A pts ([1]; Wk2): 1.3 fold; individual pt exposures in the CP B group ([1]; compared with CP A): within the range observed for CP A; AUC [1, 3]: 114000 ng·h/mL
2 | CC(C)OC(=O)[C@H](C)N[P@](=O)(OC[C@H]1O[C@@H](n2ccc(=O)[nH]c2=O)[C@](C)(F)[C@@H]1O)Oc1ccccc1 [Sofosbuvir, sofosbuvir] | – | – | – | – | – | – | – | 1.4 | similar | AUC [1, 7]: 2860 ng·h/mL; Cmax [1, 7]: 1570 ng/mL; AUC [1, 8]: 3770 ng·h/mL; Cmax [1, 8]: 1740 ng/mL; AUC [1, 9]: 2730 ng·h/mL; Cmax [1, 9]: 1280 ng/mL; AUC [1, 10]: 3770 ng·h/mL; Cmax [1, 10]: 1420 ng/mL
3 | C[C@@]1(F)[C@H](O)[C@@H](CO)O[C@H]1n1ccc(=O)[nH]c1=O [GS-331007] | – | – | – | – | – | – | – | – | – | mean exposure in Child-Pugh A and Child-Pugh B subjects ([2]; in vivo): similar
4 | COC(=O)N[C@H](C(=O)N1CCC[C@H]1c1nc(-c2ccc(-c3ccc(-c4c[nH]c([C@@H]5CCCN5C(=O)[C@@H](NC(=O)OC)C(C)C)n4)cc3)cc2)c[nH]1)C(C)C [Daclatasvir, daclatasvir] | 1150 | 14200 | 958 | 15600 | 1070 | 13500 | 854 | – | similar | AUC, mean ([1]; Week 2, Child-Pugh A (n = 19), plasma): 16022 ng·h/mL; mean exposure in Child-Pugh A and Child-Pugh B subjects ([2]; treatment with SMV+SOF+DCV): similar
